The source of these data is patent US20030119862A1, “Pharmaceutical combination” (priority 2001, published 2003).

Read-outs that look alike come from different tables or passages of the source.

The subject of the assay is isolated human neutrophils. As to the kind of experiment: Inhibition of fMLP-induced elastase release from isolated human neutrophils. The conditions noted are these: read-out: Inhibition of elastase release (IC50). It is filed as cell-based. On the procedure: Test data—Inhibition of Elastase Release from Isolated Human Neutrophils
The dextran/blood was mixed gently by inversion and left to stand at room temperature for 45 minutes to allow erythrocyte sedimentation. Aliquots of 16 ml from the leukocyte-rich supernatant were overlaid on 10 ml Ficoll-Hypaque cushions in 50 ml polypropylene centrifuge tubes and the tubes centrifuged at 400 g for 35 mins at 21° C. The plasma, mononuclear cell layer and Ficoll were removed leaving the granulocyte-rich pellet. The pellets were initially re-suspended in 10 ml ice-cold distilled water for 45 seconds to lyse contaminating red blood cells, followed by the addition of 10 ml of ice-cold double concentrated phosphate buffered saline (PBS) solution to each tube to restore osmolarity. The suspensions were re-centrifuged at 200 g for 10 min at 4° C. to generate neutrophil pellets. The supernatants were removed and the pellets gently resuspended in a total volume of 10 ml ice-cold HBSS using a Pasteur pipette. A differential white cell count was performed on the resulting neutrophil suspension using a Beckman Coulter Ac. T5 haematology analyser and the cells stored on ice until assay. Immediately prior to assay, aliquots of the neutrophil suspension were removed and diluted to a count of 4×10^6 neutrophils/ml ice-cold HBSS containing 2U/ml adenosine deaminase.
Inhibition of fMLP induced elastase release was performed using a 160 μl assay volume in 96-well polystyrene microtiter plates. Elastase release was assayed by measuring the rate of cleavage of the synthetic substrate MeOSuc-Ala-Ala-Pro-Val-pNA. […] Assay plates were incubated at 37° C. for 10 minutes before addition of 8 μl of 2 μM fMLP (in HBSS) and measurement of rate of substrate cleavage was measured at λ=405 nm for 3 minutes at 37° C. Basal elastase, release was determined by the addition of 8 μl HBSS in place of fMLP. […] In the case of the combination experiments, 1000 nM of Ariflo (trade mark) (A) (also known as cilomilast) or 9-cyclopentyl-5,6-dihydro-7-ethyl-3-(2-thienyl)-9H-pyrazolo[3,4-c]-1,2,4-triazolo[4,3-α]pyridine and 9-cyclopentyl-5,6-dihydro-7-ethyl-3-(tert-butyl)-9H-pyrazolo[3,4-c]-1,2,4-triazolo[4,3-c]pyridine (C) were added to the assay and a concentration response curve was then generated for formoterol (F) or salmeterol (S).

Setting [1] is: Neutrophil, single agent, fMLP-induced elastase release, isolated human neutrophils.

As usually defined, the IC50 is the concentration that gives 50% inhibition. For `COc1ccc(CC(C)NCC(O)c2ccc(O)c(NC=O)c2)cc1` (stereo not shown) [F, N-[2-hydroxy-5-(1-hydroxy-2-((2-(4-methoxyphenyl)-1-methylethyl)amino)ethyl)phenyl]formamide], the IC50 (Homo sapiens, Neutrophil) was over 1000 nM.
Turning to `CCc1nn(C2CCCC2)c2c1CCn1c(-c3cccs3)nnc1-2` [C, 9-cyclopentyl-5,6-dihydro-7-ethyl-3-(2-thienyl)-9H-pyrazolo[3,4-c]-1,2,4-triazolo[4,3-α]pyridine and 9-cyclopentyl-5,6-dihydro-7-ethyl-3-(tert-butyl)-9H-pyrazolo[3,4-c]-1,2,4-triazolo[4,3-c]pyridine], the IC50 (single agent, fMLP-induced elastase release, isolated human neutrophils) was over 1000 nM.
As for `COc1ccc([C@]2(C#N)CC[C@@H](C(=O)O)CC2)cc1OC1CCCC1` [A, cilomilast], the 50% inhibitory concentration (IC50) under setting [1] is over 1000 nM.
Still for that read-out and setting: with `OCc1cc(C(O)CNCCCCCCOCCCCc2ccccc2)ccc1O` (stereo not shown) [S, salmeterol] the figure was over 1000 nM.
